The values below come from BindingDB's records for doi:10.1021/jm00403a011 (Bristol Myers Squibb, 1988).

This experiment deals with D(2) dopamine receptor (Rattus norvegicus, UniProt P61169). The experiment can be described thus: ChEBML_61437. The procedure: In vitro antagonistic activity against Dopamine receptor D2 was evaluated for the inhibition of [3H]spiperone binding
Sequence of D(2) dopamine receptor (P61169 whole entry): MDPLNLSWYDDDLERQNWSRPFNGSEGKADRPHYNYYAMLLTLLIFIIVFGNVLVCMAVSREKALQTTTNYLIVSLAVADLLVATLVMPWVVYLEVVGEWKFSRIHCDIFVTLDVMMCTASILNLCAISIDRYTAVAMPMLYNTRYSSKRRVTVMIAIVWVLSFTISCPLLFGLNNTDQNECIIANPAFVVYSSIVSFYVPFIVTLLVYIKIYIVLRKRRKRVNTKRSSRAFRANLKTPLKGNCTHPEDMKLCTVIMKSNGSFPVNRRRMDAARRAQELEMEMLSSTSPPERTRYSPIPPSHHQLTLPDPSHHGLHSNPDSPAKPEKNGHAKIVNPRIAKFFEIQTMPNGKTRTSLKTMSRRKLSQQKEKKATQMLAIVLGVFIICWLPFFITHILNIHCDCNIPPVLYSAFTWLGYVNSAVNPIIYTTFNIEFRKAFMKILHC

Regarding `CCN(CC)CCNC(=O)c1cc(Cl)c(N)cc1OC(C)C(C)N=O` (configuration not stated) [4-Amino-5-chloro-N-(2-diethylamino-ethyl)-2-(2-hydroxyimino-1-methyl-propoxy)-benzamide], the IC50 (commonly the concentration that inhibits the measured activity by half) is > 1000 nM. The same measure for `CCN(CC)CCNC(=O)c1cc(Cl)c(N)cc1OCC(C)N=O` (configuration not stated) [4-Amino-5-chloro-N-(2-diethylamino-ethyl)-2-(2-hydroxyimino-propoxy)-benzamide]: > 1000 nM.
